From US10259772B2, “Agents for maintaining undifferentiated state and promoting proliferation of stem cells” (NIPPON MENARD COSMETIC CO., LTD., priority 2014, dated 2019)

Legend:
Assay type in all cases: cell-based
human somatic stem cells [1] = assay: Evaluation of proliferation-promoting effect on stem cells (cell count); conditions: 72 h, final concentration 0.001%, 3 days of culture, number of cells in no addition group (control) defined as 100%, read-out: Percent cell proliferation (%)
Description: 3×10^5 cells of human somatic stem cells (manufactured by DS Pharma Biomedical Co., Ltd.) cultured using a human stem cell culture medium (manufactured by Toyobo Co., Ltd.) were seeded in a 6 cm dish, one or a mixture (fatty acid glycerides 2+3, fatty acid glycerides 4+5) of fatty acid glycerides 1 to 9 was added at a final concentration of 0.001%, and culture was continued for 3 days. When a mixture of two fatty acid glycerides was used, the ratio thereof was 1:1 (weight ratio).
After 3 days of culture, cells were washed three times with PBS(−), then collected with a rubber policeman, and cells were counted for each culture.
The total number of cells without addition of fatty acid glycerides was defined as control and the control was defined as 100(%). Increase or decrease (%) of the number of cells with addition of fatty acid glycerides was calculated and the stem cell proliferation-promoting effect was evaluated.

human somatic stem cells [2] = assay: In vitro wound healing test (scratch assay); conditions: final concentration 0.001%, 100 × area of scratch region at 48 hours / area at 0 hours, no addition control 61
Description: The scratch assay (JP Publication (Kokai) No. 2013-18756), which is generally conducted as a method for evaluating the efficacy to promote wound healing, was conducted. Specifically, 5×10^5 cells of human somatic stem cells were seeded in a 3.5 cm dish, cultured using human stem cell culture medium to confluency, and then the bottom of the dish was scratched with the end of a sterilized tip to generate a gap in the cell sheet. Subsequently, the medium was changed to a medium supplemented with one or a mixture (fatty acid glycerides 2+3, fatty acid glycerides 4+5) of fatty acid glycerides 1 to 9 at a final concentration of 0.001% and the percent recovery of the cell gap was evaluated 48 hours later. To obtain the same area under a phase contrast microscope when obtaining images before and after the recovery, a mark that can be used as a reference point is provided near the scratch.
The scratch region 48 hours later was calculated as [scratch region 48 hours later]=100× [area of scratch region at 48 hours]/[area of scratch region at 0 hours] using a commercially available image analysis software. These test results are illustrated in Table 4 below.

[3] = system: murine embryonic stem cells (murine ES cells); assay: Evaluation of undifferentiated state-maintaining effect on stem cells (Nanog gene expression, real-time PCR); conditions: final concentration 0.001%, 3 days of culture, Nanog/Gapdh relative expression at onset of culture defined as 100% undifferentiation, no addition control 25
Description: Using a medium prepared by adding fetal bovine serum (FBS, 15%, manufactured by Sigma-Aldrich Co. LLC), a nucleoside solution (100 times dilution, manufactured by Sumitomo Dainippon Pharma Co., Ltd.), a non-essential amino acids solution (100 times dilution, manufactured by Sumitomo Dainippon Pharma Co., Ltd.), a β2-mercaptoethanol solution (100 times dilution, manufactured by Sumitomo Dainippon Pharma Co., Ltd.), an L-glutamine solution (100 times dilution, manufactured by Sumitomo Dainippon Pharma Co., Ltd.), penicillin (100 units/mL, manufactured by Sigma-Aldrich Co. LLC), and streptomycin (100 μg/mL, manufactured by Sigma-Aldrich Co. LLC) to Dulbecco's Modified Eagle Medium (manufactured by Gibco), 5×10^5 cells of murine embryonic stem cells (murine ES cells: manufactured by COSMO BIO Co., Ltd.) were seeded in a 6 cm dish coated with gelatin (manufactured by Sigma-Aldrich Co. LLC), one or a mixture of fatty acid glycerides 1 to 9 was added to the medium at a final concentration of 0.001%, and culture was continued for 3 days.
After 3 days of culture, cells were collected and washed twice with PBS(−) and RNA was extracted from the cells with Trizol Reagent (Invitrogen). Extracted RNA was reverse-transcripted to cDNA using 2-STEP real-time PCR kit (Applied Biosystems) and then real-time PCR (95° C.: 15 seconds, 60° C.: 30 seconds, 40 cycles) was performed by AB17300 (Applied Biosystems) using the following primer sets to confirm the gene expression of Nanog (undifferentiation marker: Cell Res. 2007 January; 17 (1): 42-9. Review. Nanog and transcriptional networks in embryonic stem cell pluripotency. Pan G, Thomson J A.). Other operations were conducted according to a determined procedure.
The undifferentiated state-maintaining effect was evaluated as follows: the value of the relative gene expression level of Nanog (Nanog gene expression level/Gapdh gene expression level) calculated as the ratio of the Nanog mRNA expression level to the Gapdh mRNA expression level, which is an internal standard, in murine ES cells at the onset of culture was defined as 100% undifferentiation; and relative thereto, the value of the relative gene expression level of Nanog in the ES cells after 3 days of culture was calculated and evaluated.

Compound | activity at 0.001 % (human somatic stem cells [1]) | Scratch region 48 hours later (%) (human somatic stem cells [2]) | Nanog expression level (%) after 3 days of culturing [3]
CCCCCC=CCC=CCCCCCCCC(=O)OCC(O)CO (stereo not drawn) [Fatty acid glyceride 1, 1-Monolinolein] | 115% | 54% | 33%
CCCCCC=CCC=CCCCCCCCC(=O)OCC(O)COC(=O)CCCCCCCCCCCCCCCCC (stereo not drawn) [Fatty acid glyceride 5, 1-Stearin-3-linolein] | 145% | 40% | 57%
CCCCCCCC/C=C\CCCCCCCC(=O)OCC(COC(=O)CCCCCCC/C=C\CCCCCCCC)OC(=O)CCCCCCC/C=C\CCCCCCCC [Fatty acid glyceride 8, Triolein] | 118% | 52% | 35%
CCCCCCCCC=CCCCCCCCC(=O)OCC(O)COC(=O)CCCCCCCC=CCCCCCCCC (stereo not drawn) [Fatty acid glyceride 6, 1,3-Diolein] | 130% | 44% | 43%
CCCCCC=CCC=CCCCCCCCC(=O)OCC(O)COC(=O)CCCCCCCC=CCC=CCCCCC (stereo not drawn) [Fatty acid glyceride 3, 1,3-Dilinolein] | 158% | 32% | 65%
CCCCCC=CCC=CCCCCCCCC(=O)OCC(COC(=O)CCCCCCCC=CCC=CCCCCC)OC(=O)CCCCCCCC=CCC=CCCCCC (stereo not drawn) [Fatty acid glyceride 9, Trilinolein] | 117% | 53% | 34%
CCCCCC=CCC=CCCCCCCCC(=O)OCC(O)COC(=O)CCCCCCCC=CCCCCCCCC (stereo not drawn) [Fatty acid glyceride 4, 1-Olein-3-linolein] | 148% | 38% | 59%
CCCCCCCCCCCCCCCC(=O)OCC(COC(=O)CCCCCCCCCCCCCCC)OC(=O)CCCCCCCCCCCCCCC [Tripalmitin, reference compound] | 103% | 59% | 26%
CCCCCCCCCCCCCCCC(=O)O [Palmitic acid, reference compound] | 102% | 60% | 27%
CCCCCC=CCC=CCCCCCCCC(=O)OCC(O)COC(=O)CCCCCCCCCCCCCCC (stereo not drawn) [Fatty acid glyceride 2, 1-Palmitin-3-linolein] | 160% | 30% | 71%
CCCCCC=CCC=CCCCCCCCC(=O)OC(CO)COC(=O)CCCCCCCCCCCCCCC (stereo not drawn) [Fatty acid glyceride 7, 1-Palmitin-2-linolein] | 129% | 45% | 41%
